In PubChem BioAssay (NCI):
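Results reflect a 48-hour exposure of cells in 96-well plates to compound at five concentrations. Abbreviation: GI50, concentration required for 50% inhibition of growth. TGI denotes the concentration required for complete inhibition of growth.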

Tests used:
Assay in all cases: growth of human tumour cells (NCI), 48 h
NCI-H522 lung = tested on: NCI-H522 lung
RXF 393 renal = tested on: RXF 393 renal
COLO 205 colon = tested on: COLO 205 colon
HCT-15 colon = tested on: HCT-15 colon
SK-MEL-5 melanoma = tested on: SK-MEL-5 melanoma
UACC-62 melanoma = tested on: UACC-62 melanoma
MDA-MB-231 breast = tested on: MDA-MB-231 breast
HS 578T breast = tested on: HS 578T breast
RPMI-8226 leukemia = tested on: RPMI-8226 leukemia
HCC-2998 colon = tested on: HCC-2998 colon

Row | SMILES | TGI (NCI-H522 lung) | TGI (RXF 393 renal) | TGI (COLO 205 colon) | TGI (HCT-15 colon) | TGI (SK-MEL-5 melanoma) | TGI (UACC-62 melanoma) | TGI (MDA-MB-231 breast) | TGI (HS 578T breast) | TGI (RPMI-8226 leukemia) | TGI (HCC-2998 colon) | GI50 (RXF 393 renal) | GI50 (COLO 205 colon) | GI50 (HCT-15 colon) | GI50 (HCC-2998 colon) | GI50 (SK-MEL-5 melanoma) | GI50 (UACC-62 melanoma) | GI50 (MDA-MB-231 breast) | GI50 (HS 578T breast) | GI50 (RPMI-8226 leukemia)
1 | O=C1NC(=O)C(C(c2ccc([N+](=O)[O-])cc2)C2C(=O)NC(=O)NC2=O)C(=O)N1 | > 100 µM | > 100 µM | > 100 µM | > 100 µM | > 100 µM | > 100 µM | > 100 µM | > 100 µM | > 100 µM |  |  |  |  |  |  |  |  |  | 
2 | CN(CCNC(=O)c1nn(-c2ccc(Cl)cc2Cl)c2c1Cc1ccccc1-2)CCNC(=O)c1nn(-c2ccc(Cl)cc2Cl)c2c1Cc1ccccc1-2 | 3.71 µM | 4.54 µM | 3.43 µM | 5.97 µM | 3.48 µM | 3.48 µM | 8.88 µM | 32.5 µM | 4.5 µM | 3.26 µM |  |  |  |  |  |  |  |  | 
3 | O=c1oc2cc(O)ccc2c2oc3cc(O)ccc3c12 | 31.9 µM | 124 µM | 72.5 µM | > 125 µM | 69.9 µM | > 125 µM |  |  | > 125 µM | > 118 µM |  |  |  |  |  |  |  |  | 
4 | CN(C)c1ccc(C2CC(=O)CC(c3ccc(N(C)C)cc3)C23C(=O)NC(=S)NC3=O)cc1 (centres undefined) |  | > 100 µM | > 100 µM | > 100 µM | > 100 µM | > 100 µM | > 100 µM | > 100 µM | > 100 µM | > 100 µM |  |  |  |  |  |  |  |  | 
5 | N#Cc1ccc([N+](=O)[O-])cc1NC(N)=S | > 100 µM |  | > 100 µM | > 100 µM | > 100 µM |  |  |  | > 100 µM | > 100 µM |  |  |  |  |  |  |  |  | 
6 | CN1c2c(nc(N)[nH]c2=O)NCC1CCNc1ccc(C(=O)NC(CCC(=O)O)C(=O)O)cc1 (centres undefined) | 2470 µM | 2490 µM | 2750 µM | 3010 µM | 2470 µM | 1650 µM | 3050 µM | 5910 µM | 2930 µM | 2080 µM |  |  |  |  |  |  |  |  | 
7 | CC1=C[C@H]([C@H]2C=C(C)C(C(N)=O)=CN2Cc2c(Cl)cccc2Cl)N(Cc2c(Cl)cccc2Cl)C=C1C(N)=O | > 75 µM | > 75 µM | > 75 µM | > 75 µM | > 75 µM | > 75 µM | > 75 µM | > 75 µM | > 75 µM | > 75 µM |  |  |  |  |  |  |  |  | 
8 | O=C1CCCCN1 | > 1120 µM | > 1120 µM | > 1120 µM | > 1120 µM | > 1120 µM | > 1120 µM |  |  | > 1120 µM | > 1120 µM |  |  |  |  |  |  |  |  | 
9 | CC1=C(SCCO)C(=O)c2ccccc2C1=O | 14.6 µM | 26.3 µM | 24.1 µM | 25.3 µM | 26.6 µM | 31.7 µM | 27.4 µM | 40.4 µM |  | 30.4 µM |  |  |  |  |  |  |  |  | 
10 | c1ccc(SCCc2ccncc2)cc1 | > 100 µM | > 100 µM | > 100 µM | > 100 µM | > 100 µM | > 100 µM | > 100 µM | > 100 µM | > 100 µM | > 100 µM |  |  |  |  |  |  |  |  | 
11 | O=S(=O)(O)c1cc(S(=O)(=O)O)c2c(N=Nc3ccc(S(=O)(=O)O)c4ccccc34)c(O)ccc2c1 | > 100 µM | > 100 µM | > 100 µM | > 100 µM | > 100 µM | > 100 µM | > 100 µM | > 100 µM | > 100 µM |  |  |  |  |  |  |  |  |  | 
12 | COc1nc2ccc(CNc3ccc(C(=O)NC(CCC(=O)O)C(=O)O)cc3)cc2nc1OC (centres undefined) | > 100 µM | > 100 µM | > 100 µM | > 100 µM | > 100 µM | > 100 µM | > 100 µM | > 100 µM | > 100 µM | > 100 µM |  |  |  |  |  |  |  |  | 
13 | Nc1nc(SCCNC(=O)CCc2ccc(O)c(I)c2)nc2c1ncn2C1OC(CO)C(O)C1O (centres undefined) | > 100 µM | > 100 µM | > 100 µM | > 100 µM | > 100 µM | > 100 µM |  |  |  | > 100 µM |  |  |  |  |  |  |  |  | 
14 | COc1cc2c3c(n(CCCn4cncn4)c(=O)c2cc1OC)-c1cc2c(cc1C3=O)OCO2 | > 100 µM | > 100 µM | > 100 µM | > 100 µM | 31 µM |  | > 100 µM | > 100 µM | 12.3 µM | > 100 µM | 11.9 µM | > 100 µM | > 100 µM | 16.6 µM | 671 nM | < 10 nM | 80.9 µM | > 73.6 µM | < 19.4 nM
15 | CC(=O)OCC1=CC2OC(=O)C3=COC(OC4OC(CO)C(O)C(O)C4O)C1C32 (centres undefined) | > 100 µM |  | > 100 µM | > 100 µM | > 100 µM | > 100 µM | > 100 µM | > 100 µM | > 100 µM | > 100 µM |  |  |  |  |  |  |  |  | 
16 | CC(=O)OCCCCN1C(=O)CSc2ccccc21 | > 100 µM | > 100 µM |  | > 100 µM | > 100 µM | > 100 µM |  | > 100 µM | > 100 µM |  |  |  |  |  |  |  |  |  | 
